System: mice
Assay: In vivo delivery of FLuc-mRNA lipid nanoparticles in mice, in vivo imaging (IVIS)
Conditions: for % of organ targeting / IVIS: Fluc-mRNA LNP, formulation, molar ratio and N/P as in the table
Description: After the preparation was completed, the preparation was injected intramuscularly (mice rectus femoris muscle of the thigh), intravenously (mice tail vein), or intraperitoneal injection or subcutaneous injection (subcutaneous on the back), with approximately 75 μL per mouse, for a total of 3 mice. After a certain time of injection, in vivo imaging (PerkinElmer, IVIS Lumina III) was performed. 10-15 minutes before imaging, 200 μL of 15 mg/mL D-Luciferin working solution was injected intraperitoneally, and the imaging analysis was performed using an in vivo imager.

Compound | % of organ targeting (route IM, organ: liver) [%] | IVIS (route IM, organ: liver) | % of organ targeting (route IM, organ: lung) [%] | IVIS (route IM, organ: lung) | IVIS (route IM, organ: muscle) | % of organ targeting (route IM, organ: spleen) [%] | IVIS (route IM, organ: spleen) | IVIS (route IV, organ: body) | % of organ targeting (route IV, organ: liver) [%] | IVIS (route IV, organ: liver) | % of organ targeting (route IV, organ: lung) [%] | IVIS (route IV, organ: lung) | % of organ targeting (route IV, organ: spleen) [%] | IVIS (route IV, organ: spleen) | organ targeting specificity (spleen or lung), in words (Table 3, Fluc-mRNA, various formulations) | IVIS (route IM, organ not given) | IVIS (route IV, organ not given)
CCCCCCCCC(CCCCCC)C(=O)OCCCCNC(=O)C(O)CCN(CCCN(C)CCN(CC(O)C(=O)NCCCCOC(=O)C(CCCCCC)CCCCCCCC)CC(O)C(=O)NCCCCOC(=O)C(CCCCCC)CCCCCCCC)C(O)C(=O)NCCCCOC(=O)C(CCCCCC)CCCCCCCC (stereo not shown) [Compound L0377] | 35.08 | 1.59E+05 | 6.58 | 2.98E+04 | 3.71E+07 | 58.34 | 2.64E+05 | 1.81E+08 | 38.23 | 6.08E+07 | 4.20 | 6.67E+06 | 57.57 | 9.15E+07 | strong targeting specificity to deliver to spleen | – | –
CCCCCCCCCCOC(=O)CCCNC(=O)C(O)CN(CCCN(CC(O)C(=O)NCCCC(=O)OCCCCCCCCCC)CC(O)C(=O)NCCCC(=O)OCCCCCCCCCC)CCCN(CC(O)C(=O)NCCCC(=O)OCCCCCCCCCC)CC(O)C(=O)NCCCC(=O)OCCCCCCCCCC (stereo not shown) [Compound L0387] | – | – | – | – | – | – | – | – | – | – | – | – | – | – | – | 1.15E+05 | 5.23E+05
CCCCCCC(CCCCCC)C(=O)OCCCCCCNC(=O)C(O)CN(CCN(C)CCN(CC(O)C(=O)NCCCCCCOC(=O)C(CCCCCC)CCCCCC)CC(O)C(=O)NCCCCCCOC(=O)C(CCCCCC)CCCCCC)CC(O)C(=O)NCCCCCCOC(=O)C(CCCCCC)CCCCCC (stereo not shown) [Compound L0359] | – | – | – | – | – | – | – | 2.65E+08 | 33.50 | 5.06E+07 | 6.37 | 9.61E+06 | 60.13 | 9.08E+07 | – | 2.25E+07 | –
CCCCCCCCCCCCNC(=O)C(CN(CCCN(C)CCCN(CC(OC(C)=O)C(=O)NCCCCCCCCCCCC)CC(OC(C)=O)C(=O)NCCCCCCCCCCCC)CC(OC(C)=O)C(=O)NCCCCCCCCCCCC)OC(C)=O (stereo not shown) [Compound L0388] | – | – | – | – | – | – | – | 1.49E+08 | 22.33 | 2.37E+07 | 1.64 | 1.74E+06 | 76.03 | 8.08E+07 | – | 1.49E+07 | –
CCCCCCCCCCCCNC(=O)C(O)CN(CCCN(C)CCN(C)CCCN(CC(O)C(=O)NCCCCCCCCCCCC)CC(O)C(=O)NCCCCCCCCCCCC)CC(O)C(=O)NCCCCCCCCCCCC (stereo not shown) [Compound L0366] | – | – | – | – | – | – | – | – | – | – | – | – | – | – | – | 4.56E+05 | –
